Here are results for 34 molecules from patent US5846720A, “Methods of determining chemicals that modulate expression of genes associated with cardiovascular disease” (Oncogene Science, Inc., priority 1996, dated 1998).

The test system of one series is G-CSF promoter. The experiment in a line: G-CSF promoter/luciferase reporter assay (high-throughput screen I), G21 cells. As to conditions: for GCSF fold induction relative to solvent control: transcriptional activators. On the technique in general: Reporter assays use an easily measured gene product as a stand-in for the process of interest.
The next series has as its system hGH promoter. Nature of the series: hGH promoter/luciferase reporter assay (high-throughput screen I), 532 cells. The class given is cell-based, rat. As to conditions: Table 2, 6 h incubation; for hGH fold inhibition relative to solvent control: transcriptional inhibitors; for hGH fold induction relative to solvent control: transcriptional activators. From the text: 6. a GC rat pituitary cell line, transfected with the growth hormone reporter plasmid, designated 532, deposited under ATCC Accession No. CRL 10663.

A further series deals with MMTV promoter. Nature of the series: MMTV promoter/luciferase reporter assay (high-throughput screen I, control for specificity), M10 cells. The class given is cell-based, mouse. The conditions noted are these: Table 2, 6 h incubation; for MMTV fold inhibition relative to solvent control: transcriptional inhibitors; for MMTV fold induction relative to solvent control: transcriptional activators, original high-throughput assay. How it is done:
pMluci and pSV2Neo, an antibiotic resistance plasmid (84), were co-transfected into NIH/3T3 mouse fibroblast cells using the calcium phosphate precipitation method (85) with a commercially available kit (Pharmacia, Piscataway N.J.). Two days later, cells were transferred to media containing 0.4 mg/ml G418 and were grown for an additional 10-14 days. G418-resistant clones were isolated by standard methods. Once sufficient cell numbers were obtained, clones were analyzed based on several criteria: constitutive luciferase production, induction of luciferase expression by dexamethasone ([…], Sigma, St. Louis, Mo.), satisfactory attachment to microtiter plates used in the high-throughput screen (see section G) and acceptable standard deviation in multiple luciferase expression assays (see below for assay protocol). This analysis was carried out using the luciferase assay conditions described above. Of the clones which satisfied the above criteria for the high throughput screen, one clone, M10, was selected for use.

[1] abbreviates: transcriptional inhibitors, Table 2, 6 h incubation.

Where two headings read alike, the source gives them in different places.

`O=C(c1ccc(O)c(O)c1)c1c(O)cc(O)cc1O` [Chemical 660]: in the series with G-CSF promoter (setting [1]), the “GCSF fold inhibition relative to solvent control” value was found to be 10.0 fold. Besides, in the series on hGH promoter, the “hGH fold inhibition relative to solvent control” value stood at 0.34 fold. In addition, the “MMTV fold inhibition relative to solvent control” value in the series with MMTV promoter is 1.04 fold.
Turning to `CN(C)c1ccc(C(=C2C=CC(=[N+](C)C)C=C2)c2ccc([N+](C)(C)C)cc2)cc1` [Chemical 670], the “GCSF fold induction relative to solvent control” value with G-CSF promoter (Table 2, 6 h incubation) is reported as more than 3 fold. Besides, the “hGH fold induction relative to solvent control” value in the series on hGH promoter is recorded as 0.52 fold. Besides, in the series with MMTV promoter, the “MMTV fold induction relative to solvent control” value is recorded as 0.79 fold.
On to `C1CCNCC1` [Chemical 759], for which, in the series on G-CSF promoter, the “GCSF fold inhibition relative to solvent control” value worked out at 0.64. Besides, the “hGH fold inhibition relative to solvent control” value with hGH promoter is on record as 5.88 fold. Besides, in the series on MMTV promoter, the “MMTV fold inhibition relative to solvent control” value is 0.95 fold.
As to `CC(=O)OCC(=O)[C@@]1(O)CC[C@H]2[C@@H]3CCC4=CC(=O)C=C[C@]4(C)[C@H]3[C@@H](O)C[C@@]21C` [Chemical 765], the “GCSF fold induction relative to solvent control” value in the series on G-CSF promoter (Table 2, 6 h incubation) is given as 0.96 fold. In addition, the “hGH fold induction relative to solvent control” value with hGH promoter stood at 1.30 fold. For the same molecule, the “MMTV fold induction relative to solvent control” value with MMTV promoter is recorded as 2.66 fold.
On to `CCOc1ccc2nc3cc(N)ccc3c(N)c2c1` [Chemical 790], for which, in the series with G-CSF promoter (Table 2, 6 h incubation), the “GCSF fold induction relative to solvent control” value was 0.01 fold. In the series with hGH promoter, the “hGH fold induction relative to solvent control” value turned out to be 5.94 fold. Besides, the “MMTV fold induction relative to solvent control” value with MMTV promoter is 0.58 fold.
On the same counts, the results for `O=C1OC2(c3cc(I)c(O)c(I)c3Oc3c2cc(I)c(O)c3I)c2c(Cl)c(Cl)c(Cl)c(Cl)c21` [Chemical 792] are 0.94 fold, 5.31 fold and 1.21 fold.
Regarding `NC(=O)c1ccccc1O` [Chemical 798], in the series on G-CSF promoter (setting [1]), the “GCSF fold inhibition relative to solvent control” value is listed as 4.76 fold. Moreover, the “hGH fold inhibition relative to solvent control” value in the series on hGH promoter came out at 0.90 fold. Besides, in the series with MMTV promoter, the “MMTV fold inhibition relative to solvent control” value came to 0.68 fold.
Turning to `Clc1ccc(Sc2cc(Cl)c(Cl)cc2Cl)cc1` [Chemical 828], the “GCSF fold induction relative to solvent control” value with G-CSF promoter (Table 2, 6 h incubation) is 1.47 fold. For the same molecule, the “hGH fold induction relative to solvent control” value in the series with hGH promoter came out at 1.34 fold. For the same molecule, the “MMTV fold induction relative to solvent control” value in the series with MMTV promoter amounted to 2.20 fold.
The matching figures for `N=c1ccc2nc3ccc(N)cc3sc-2c1` [Chemical 836]: 3.20 fold, 0.23 fold and 0.58 fold.
On the same counts, the results for `CC1(C)O[C@@H]2C[C@H]3[C@@H]4CCC5=CC(=O)C=C[C@]5(C)[C@@]4(F)[C@@H](O)C[C@]3(C)[C@]2(C(=O)CO)O1` [Chemical 848] are 0.75 fold, 1.28 fold and 2.43 fold.
The matching figures for `CCCCCCCCCCCCCCCC(=O)OCC(COC(=O)CCCCCCCCCCCCCCC)OC(=O)CCCCCCCCCCCCCCC` [Chemical 856]: 0.28 fold, 6.49 fold and 0.42 fold.
`Nc1ccc(C=CC(=O)O)cc1` [Chemical 1234]: the “GCSF fold induction relative to solvent control” value in the series with G-CSF promoter (Table 2, 6 h incubation) was determined as 4.97 fold. Further, the “hGH fold induction relative to solvent control” value in the series with hGH promoter is given as 0.51 fold. Also, the “MMTV fold induction relative to solvent control” value with MMTV promoter is listed as 1.03 fold.
For the molecule `Cc1c(C2(c3cc(Br)c(O)c(Br)c3C)OS(=O)(=O)c3ccccc32)cc(Br)c(O)c1Br` [Chemical 1251], the “GCSF fold induction relative to solvent control” value in the series with G-CSF promoter (Table 2, 6 h incubation) came out at 0.14 fold. In the series on hGH promoter, the “hGH fold induction relative to solvent control” value is listed as 15.19 fold. Moreover, the “MMTV fold induction relative to solvent control” value with MMTV promoter amounted to 0.33 fold.
The matching figures for `Clc1cc(Cl)cc(Br)c1` [Chemical 1255]: 6.74 fold, 0.43 fold and 1.09 fold.
On the same counts, the results for `Nc1c(Cl)ncnc1Cl` [Chemical 1269] are 0.72 fold, 0.91 fold and 2.18 fold.
`Nc1ccc2c(c1)Cc1ccccc1-2` [Chemical 1316]: in the series on G-CSF promoter (Table 2, 6 h incubation), the “GCSF fold induction relative to solvent control” value is reported as 0.74 fold. Also, the “hGH fold induction relative to solvent control” value in the series on hGH promoter is given as 1.39 fold. For the same molecule, the “MMTV fold induction relative to solvent control” value in the series with MMTV promoter is listed as 2.33 fold.
On the same counts, the results for `Nc1ccc2c(c1)C(=O)c1ccccc1-2` [Chemical 1318] are 1.13 fold, 0.85 fold and 2.41 fold.
On the same counts, the results for `Nc1ccc(S(=O)(=O)O)c2cccc(O)c12` [Chemical 1337] are 0.07 fold, 15.87 fold and 0.23 fold.
For the molecule `NCc1ccc(S(N)(=O)=O)cc1` [Chemical 1375], the “GCSF fold induction relative to solvent control” value in the series on G-CSF promoter (Table 2, 6 h incubation) is recorded as 8.94 fold. The “hGH fold induction relative to solvent control” value in the series on hGH promoter is recorded as 0.04 fold. Besides, the “MMTV fold induction relative to solvent control” value with MMTV promoter amounted to 1.37 fold.
As to `Cc1ccc(N)c(S(=O)(=O)O)c1` [Chemical 1376], the “GCSF fold induction relative to solvent control” value in the series with G-CSF promoter (Table 2, 6 h incubation) amounted to 6.37 fold. Also, the “hGH fold induction relative to solvent control” value with hGH promoter is on record as 0.04 fold. Further, in the series on MMTV promoter, the “MMTV fold induction relative to solvent control” value turned out to be 1.32 fold.
The matching figures for `Cc1ccc(C(=O)c2ccccc2N)cc1` [Chemical 1384]: 1.33 fold, 0.50 fold and 2.43 fold.
The matching figures for `Cc1cc(N)sn1` [Chemical 1397]: 3.63 fold, 0.57 fold and 1.13 fold.
The matching figures for `Nc1ccccc1SSc1ccccc1N` [Chemical 1482]: 3.99 fold, 0.54 fold and 1.07 fold.
As to `Nc1ccc(SSc2ccc(N)cc2)cc1` [Chemical 1483], the “GCSF fold induction relative to solvent control” value with G-CSF promoter (Table 2, 6 h incubation) was 4.64 fold. For the same molecule, in the series with hGH promoter, the “hGH fold induction relative to solvent control” value is on record as 0.38 fold. The “MMTV fold induction relative to solvent control” value in the series on MMTV promoter was 1.09 fold.
The matching figures for `Nc1nc(-c2ccccc2)cs1` [Chemical 1499]: 0.24 fold, 5.55 fold and 0.61 fold.
On the same counts, the results for `Nc1nc2nc[nH]c2c(=S)[nH]1` [Chemical 1521] are 3.59 fold, 0.73 fold and 0.92 fold.
On the same counts, the results for `Nc1nccs1` [Chemical 1550] are 0.04 fold, 5.44 fold and 0.87 fold.
Consider `NC1=NCCS1` [Chemical 1552], for which, in the series on G-CSF promoter (Table 2, 6 h incubation), the “GCSF fold induction relative to solvent control” value is listed as 1.23 fold. Further, the “hGH fold induction relative to solvent control” value with hGH promoter came out at 7.26 fold. Moreover, the “MMTV fold induction relative to solvent control” value with MMTV promoter was 0.52 fold.
For the molecule `Nc1c(Cl)c(Cl)nc(C(=O)O)c1Cl` [Chemical 1561], in the series on G-CSF promoter (Table 2, 6 h incubation), the “GCSF fold induction relative to solvent control” value is on record as 0.23 fold. For the same molecule, the “hGH fold induction relative to solvent control” value in the series on hGH promoter worked out at 8.05 fold. Further, the “MMTV fold induction relative to solvent control” value with MMTV promoter came to 0.48 fold.
Consider `Brc1ccc2c3c(cccc13)CC2` [Chemical 1573], for which the “GCSF fold induction relative to solvent control” value with G-CSF promoter (Table 2, 6 h incubation) came out at 1.49 fold. Moreover, the “hGH fold induction relative to solvent control” value in the series with hGH promoter worked out at 0.34 fold. In the series on MMTV promoter, the “MMTV fold induction relative to solvent control” value is given as 4.30 fold.
On the same counts, the results for `Nc1ncnc2c1nc(Br)n2[C@@H]1O[C@H](CO)[C@@H](O)[C@H]1O` [Chemical 1583] are 5.82 fold, 0.12 fold and 0.88 fold.
Consider `Cc1ccc(P(CCP(c2ccc(C)cc2)c2ccc(C)cc2)c2ccc(C)cc2)cc1` [Chemical 1591], for which the “GCSF fold inhibition relative to solvent control” value with G-CSF promoter (setting [1]) amounted to 0.56 fold. The “hGH fold inhibition relative to solvent control” value in the series with hGH promoter is on record as 5.55 fold. Further, in the series with MMTV promoter, the “MMTV fold inhibition relative to solvent control” value amounted to 0.96 fold.
In the case of `CC1(C)[C@@H](C(=O)OCC(F)(F)C(F)(F)C(F)(F)C(F)(F)C(F)(F)C(F)F)CC[C@@]1(C)C(=O)OCC(F)(F)C(F)(F)C(F)(F)C(F)(F)C(F)(F)C(F)F` [Chemical 1592], in the series with G-CSF promoter (Table 2, 6 h incubation), the “GCSF fold induction relative to solvent control” value was determined as 3.20 fold. The “hGH fold induction relative to solvent control” value in the series with hGH promoter stood at 0.74 fold. The “MMTV fold induction relative to solvent control” value in the series with MMTV promoter was determined as 1.34 fold.
The matching figures for `O=C(Nc1cccc(C2=NCCN2)c1)Nc1cccc(C2=NCCN2)c1` [Chemical 1598]: 0.72 fold, 5.32 fold and 1.27 fold.
